US7718804B2, “Quaternary nitrogen heterocyclic compounds for detecting aqueous monosaccharides in physiological fluids” (University of Maryland Biotechnology Institute, priority 2003, dated 2010)
pKd: −log10 of the molar value.

Tests used:
[1] = Dissociation constant from fluorescence titration with glucose; type: binding; details: pH 7.5 phosphate buffer
From the text: (§1) Stability (KS (mM^−1) and dissociation (KD) constants were obtained by fitting the titration curves with sugar to the relation:
(§2) [formula] where Imin and Imax are initial (no sugar) and final (plateau) fluorescence intensities of the titration curves and KD=(1/KS).

[2] = Dissociation constant from fluorescence titration with fructose; type: binding; details: pH 7.5 phosphate buffer
From the text: as §1, §2

[3] = Fluorescence intensity response to fructose in solution
Method: (§3) All steady state fluorescence measurements were performed in a 4×1×1 cm fluorometric plastic cuvette, using a Varian Cary Eclipse fluorometer, and all absorption measurements were performed using a Varian UV/VIS 50 spectrophotometer.
The emission spectra of o-BMQBA in the presence of varying concentrations of fructose and glucose are shown in FIG. 4A and FIG. 4B, respectively. It can be seen that the fluorescence intensity of o-BMQBA in pH 7.5 phosphate buffer is inversely proportional to the glucose and fructose concentrations. […] A plot of the intensity ratio, I′/I, at λ=427 nm, where I′ and I represent the fluorescence intensities in the absence and presence of sugar, respectively, is shown in FIG. 4C. […] It is noted that the concentration of fructose in blood is ˜10 times lower than glucose, a relationship which is also thought to occur in tears (N. Dicesare, et. al., J. Bio. Med. Opt., 7(4), 538-545 (2002)).
The intensity ratio for o-BMQBA in buffered media (pH 5-8) at various glucose concentrations is shown in FIG. 8A, wherein I′ corresponds to the intensity in the absence of glucose and I corresponds to the intensity at the specified glucose concentration. In addition, the intensity ratio for o-BMQBA in buffered media (pH 5-8) at low glucose concentrations, typical of those found in tears, is shown in FIG. 8B. Correspondingly, the intensity ratio for o-BMQBA in buffered media (pH 5-8) at various fructose concentrations is shown in FIGS. 9A and 9B.
Because physiological fluids contain chloride ions, which are well known quenchers of quinolinium fluorescence (Geddes, C. D., Meas. Sci. Technol., 12(9), R53-R88 (2001); Geddes, C. D., et al., J. Heterocyclic Chem., 36(4), 949-951 (1999); Geddes, C. D., et al., Anal. Biochem., 293(1), 60-66 (2001)), the fluorescence intensity and intensity ratios of o-BMQBA in pH 7.5 buffer having 100 mM NaCl with varying quantities of fructose or glucose was measured and shown in FIGS. 10 and 11, respectively, where I′ corresponds to the intensity in the absence of fructose and I corresponds to the intensity at the specified fructose concentration. It can be seen that although chloride quenched the intensity of the emission in the presence of fructose, the intensity ratio change for fructose is still significant, amounting to a 4-fold decrease in fluorescence intensity at 60 mM fructose (see FIG. 10B). The quenching effect was less significant at lower concentrations of fructose (see FIG. 10C) and for glucose concentrations, both high and low (see FIGS. 11B and 11C). This minimal quenching effect for BMQBA is supported by the calculated Stern-Volmer constants, KSV, for the BMQBA compounds in water, which were determined to be 44.0 M^−1, 20.0 M^−1, 17.0 M^−1 and 35.0 M^−1 for o-BMQBA, m-BMQBA, p-BMQBA and BMQ, respectively. These are small quenching constants that are readily accounted for using simple corrections in the fluorescence signal, as readily determined by one skilled in the art of fluorescence.
The intensity ratio at λ=450 nm for o-BMOQBA in buffered media (pH 5-8) at various glucose concentrations is shown in FIG. 16A, wherein I′ corresponds to the intensity in the absence of glucose and I corresponds to the intensity at the specified glucose concentration. In addition, the intensity ratio for o-BMOQBA in buffered media (pH 5-8) at low glucose concentrations, typical of those found in tears, is shown in FIG. 16B. Correspondingly, the intensity ratio for o-BMOQBA in buffered media (pH 5-8) at various fructose concentrations is shown in FIGS. 17A and 17B.
Each BAF was tested to determine the usefulness of these BAFs with regard to tear glucose sensing in a contact lens. Towards that end, both solution-based and doped contact lens-based measurements, the methods of which are described above, were performed and subsequently compared. […]

[4] = Spectral properties in water (absorption, emission, quantum yield, lifetime); type: physicochemical; details: for φf (quantum yield): relative to SPQ (φf=0.53 in water)
Method: as §3
Time-solved intensity decays were measured using reverse start-stop time-correlated single-photon timing (TCSPC) with a Becker and Hickl Gmbh 630 SPC PC card and unamplified MCP-PMT. Vertically polarized excitation at ˜372 nm was obtained using a pulsed LED source (1 MHz repetition rate) and a dichroic sheet polarizer. The instrumental response function was ˜1.1 ns fwhm. The emission was collected at the magic angle (54.7°) using a long pass filter (Edmund Scientific) which cut-off the excitation wavelengths.
The intensity decays were analyzed in terms of the multi-exponential model:
[formula] where αi are the amplitudes and τi are the decay times, Σαi=1.0. The fractional contribution of each component to the steady-state intensity is given by:
The mean lifetime of the excited state is given by:
The values of αi and τi were determined by non-linear least squares impulse reconvolution with a goodness-of-fit χ^2R criterion.
A representative absorption and emission spectra for o-BMQBA in water is shown in FIG. 3B, which corresponds to all three isomers and BMQ. BMQBA has a strong absorption band at ˜320 nm, which can be assigned to n→π* transitions, and an excitation band at ˜427 nm, and as such, has a large Stokes shift of about 100 nm, which is ideal for fluorescence sensing. The quantum yield values of the BMQBA compounds in water relative to N-(3-sulfopropyl)-6-methoxyquinolinium (SPQ) (φf=0.53 in water) are shown in Table 1. The low quantum yields and relatively short lifetime of the BMQBA and BMQ molecules can be attributed to a photo-induced electron transfer, whereby the phenyl ring acts as the donor and the quinolinium moiety acts as the acceptor.
A representative absorption and emission spectra for o-BMOQBA in water is shown in FIG. 3A, which corresponds to all three isomers and BMOQ. BMOQBA has a strong absorption band at ˜345 nm, which can be assigned to n→π* transitions, and an excitation band at ˜450 nm, and as such, has a large Stokes shift of about 100 nm, which is ideal for fluorescence sensing. The quantum yield values of the BMOQBA compounds in water relative to N-(3-sulfopropyl)-6-methoxyquinolinium (SPQ) (φf=0.53 in water) are shown in Table 2. […] We can only speculate as to the quantum yield differences between the m-BMOQBA and p-BMOQBA compounds, which may be attributed to through-bond and through-space mechanisms.

Structure (SMILES)	pKd [1]	pKd [2]	decrease in fluorescence intensity ([3]; 0.50 mM fructose, pH 6 to 7 range, buffered solution)	λem (max) [4]	τf (mean lifetime) [4]	φf (quantum yield) [4]	decrease in fluorescence intensity ([3]; 60 mM fructose, pH 7.5 buffer with 100 mM NaCl)	λabs (max) [4]
COc1ccc2c(ccc[n+]2Cc2ccccc2B(O)O)c1.[Br-] [o-BMOQBA, N-(2-boronobenzyl)-6-methoxyquinolinium bromide]	1.31	3.19	10-40%	450 nm	26.7 ns	0.46	–	–
Cc1ccc2c(ccc[n+]2Cc2ccccc2B(O)O)c1.[Br-] [o-BMQBA, N-(2-boronobenzyl)-6-methylquinolinium bromide]	1.00	2.33	–	427 nm	4.01 ns	0.043	4 fold	319 nm
